How the values were obtained:
[1] = test system: mitochondrial proteins POLG, TFAM and ATP5B; assay: Amount of POLG, TFAM and ATP5B proteins in fibroblasts (western blot), cell growth conditions; type: cell-based, human; settings: 0.5 μM or 1.0 μM, control and patient fibroblasts
Method: Protein fractions of total extracts of control fibroblasts and of fibroblasts from a patient with a mutation on each allele of the POLG gene cultured in the presence of 0.1% DMSO or with 0.5 μM or 1.0 μM clofilium tosylate were analysed by electrophoresis.
Skin fibroblasts from the control and from the patient were cultured to 100% confluence in a complete Dulbecco's Modified Eagle Medium (DMEM) high glucose medium (4.5 g/L D-glucose, 110 mg/L sodium pyruvate, 10% foetal bovine serum, 1% penicillin/streptomycin from the stock solution containing 10,000 I.U. penicillin and 10,000 μg/mL streptomycin) at 37° C. under 5% CO2. At confluence, the cultures were trypsinised and placed in culture at 30% confluence in a complete DMEM high glucose medium supplemented with either 0.1% DMSO or with 0.5 μM or 1.0 μM clofilium tosylate. The cells were then incubated at 37° C. under 5% CO2 and harvested at 100% confluence. After trypsinisation, the total proteins of the fibroblasts were extracted and analysed by western blot. The proteins studied were the POLG protein (subjected to SDS/PAGE gel analysis (6%)), the mitochondrial proteins ATP5B and TFAM, and the cytosolic protein TUB3A as batch control.

[2] = test system: fibroblasts from a patient with a mutation on each allele of the POLG gene; assay: Amount of mtDNA (qPCR) in patient fibroblasts, cell growth conditions; type: cell-based, human; settings: 2.5 μM, DMEM high glucose, harvested at 100% confluence
Method: Skin fibroblasts from the control and from the patient were cultured to 100% confluence in a complete Dulbecco's Modified Eagle Medium (DMEM) high glucose medium (4.5 g/L of D-glucose, 110 mg/L sodium pyruvate, 10% foetal bovine serum, 1% penicillin/streptomycin from the stock solution containing 10,000 I.U. penicillin and 10,000 μg/mL streptomycin) at 37° C. under 5% CO2. At confluence, the cultures were trypsinised and placed back in culture at 30% confluence in a complete DMEM high glucose medium supplemented with either 0.1% DMSO or with 2.5 μM clofilium tosylate. They were incubated at 37° C. under 5% CO2 and harvested at 100% confluence. The total fibroblast DNAs were extracted by the phenol-chloroform method, and the mtDNA and nuclear DNA were quantified by qPCR as described in Sarzi et al., 2007 (Sarzi, E., Bourdon, A., Chrétien, D., Zarhrate, M., Corcos, J., Slama, A., Cormier-Daire, V., De Lonlay, P., Munnich, A. and Rötig, A. (2007) Mitochondrial DNA Depletion is a Prevalent Cause of Multiple Respiratory Chain Deficiency in Childhood. J Pediatr, 105, 531-534).

[3] = test system: wild-type Mip1 or mutated Mip1G651S yeast protein; assay: Amount of Mip1 proteins in mitochondria-enriched extracts (SDS/PAGE, western blot); type: cell-based, Saccharomyces cerevisiae; settings: 32 μM vs DMSO
Method: The analysis of the effect of clofilium tosylate on the amount of wild-type or mutated Mip1 proteins was carried out on cell extracts enriched in mitochondria. In order to visualise the expression of the Mip1 and Mip1G651S proteins, the sequence encoding three HA epitopes was cloned in 3′ and in phase with the coding sequence of Mip1 and Mip1G651S.
The yeast cells were cultured in selective medium (SC-TRP, 2% ethanol) overnight. Then, the cells were seeded at an initial optical density (DO600) of 0.05 in 100 mL of YPE (1% Yeast Extract, 0.5% Bacto Peptone, 2% Ethanol) supplemented either by DMSO or by 32 μM clofilium tosylate at 28° C. with stirring until a DO600 between 3 and 4 was achieved. The cells were centrifuged at 3000 g for 5 min and washed with water. The isolation of the fraction enriched in mitochondria and protein extraction of this fraction were carried out according to the protocol described by Hoffman et al., 2009 (Hofmann, L., Saunier, R., Cossard, R., Esposito, M., Rinaldi, T. and Delahodde, A. (2009) A non-proteolytic proteasome activity controls organelle fission in yeast. J. Cell. Sci., 122, 3673-3682).
The protein extracts of the fractions enriched in mitochondria were analysed by SDS/PAGE gel electrophoresis (6% for the analysis of the proteins Mip1-HA and Mip1G651S-HA and 10% for the analysis of Cox2 mitochondrial proteins (encoded by mtDNA) and porin). […]

CCCCCCC[N+](CC)(CC)CCCCc1ccc(Cl)cc1.Cc1ccc(S(=O)(=O)[O-])cc1 [clofilium tosylate]
amount of mitochondrial proteins POLG, TFAM and ATP5B [1]: increased
amount of mtDNA, cell growth conditions [2]: slightly increased
amount of wild-type Mip1 or mutated Mip1G651S yeast protein [3]: increased

Source: patent publication US10639287B2, “Compounds for the treatment of mitochondrial diseases” (UNIVERSITE PARIS-SUD, priority 2014, dated 2020)
